Records with an inconclusive call do not appear. Activity calls are given as the source filed them. No rule for the calls is given here.
What follows are compounds tested on S. typhimurium/E. coli reverse mutation, colony counts (assay: Bacterial reverse mutation test (aka Ames test) summary data;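 also: His-minus Salmonella and trp-minus E. coli WP2 uvrA pKM101 with or without liver S9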).
Description: The Ames test uses bacteria cultures to determine whether a substance causes mutations. Because there is a significant overlap between substances that are mutagens and those that are carcinogens, a quick and inexpensive mutagenicity test is useful as an initial screening for possible carcinogens.
The Ames test relies on specific strains of S. typhimurium, namely: TA97, TA98, TA100, TA102, TA104, TA1535, TA1537, and TA1538. In addition to the S. typhimurium strains, the test may also use the E. coli strain WP2 uvrA pKM101.
Each of the bacterial strains has a mutation that prevents it from making an amino acid (a protein building block) required for normal cell growth. The S. typhimurium strains are unable to manufacture histidine; the E. coli strain cannot manufacture tryptophan. The tester strains will not be able to grow without amino acid supplementation, unless the mutated gene is changed back to the correct DNA sequence (reversion mutation). Being exposed to a mutagenic chemical increases the chance that the mutant gene will be restored to the correct sequence, which allows the bacteria to grow and form colonies. Each substance under study is tested in a variety of bacterial strains with different types of altered DNA sequences in order to provide a comprehensive assessment of the mutagenic potential of the substance.
Some non-mutagenic substances are converted to mutagenic substances when metabolized by the liver; in contrast, some substances that are mutagenic in their natural state are converted to non-mutagens by the liver. All substances are tested in their natural state, as well as in the presence of liver enzymes that can produce this metabolic conversion of the test substance. Extracts of rat, hamster, or mouse liver enzymes (S9 mix) are used for this purpose.
D. Preparing the Cultures
Multiple sets of cultures are prepared using a range of doses and different amounts of liver enzymes for each bacterial strain. Each culture is prepared in a test tube containing a suspension of one bacterial strain and either an S9 mix or plain buffer solution. Then the test substance is added. Negative control cultures are established using the same ingredients, but without the test substance. Positive control cultures are established using known mutagens active in particular bacterial strains and metabolic conditions (for example, with or without S9). Once prepared, each culture is incubated for 20 minutes at 37° C. Agar is then added to the cultures, and the contents of each tube are poured onto the surface of a Petri dish that was prepared with standard bacterial culture medium. The plates are then incubated, usually for two days.
Depending on the substance to be tested, the exposure and incubation processes may be modified. These variations include:
- Elimination of the 20-minute incubation period in a test tube prior to plating (this method is referred to as the standard plate incorporation method)
- Enzymatic reduction of azo and diazo substances (this process occurs in the intestine or liver of animals) using a chemical called flavin mononucleotide (FMN) or intestinal bacterial preparations from rats
- Testing in sealed chambers such as desiccators for volatile and gaseous chemicals.
To validate the test, a trained investigator compares the number of colonies on the chemical-treated plates to the number of colonies on the negative control plates. If the substance under test is mutagenic, the chemical-treated plates will have a much greater number of colonies than the negative control plates.
- A positive response is a reproducible, dose-related increase in mutant colonies in any single strain, with or without the addition of S9 metabolic enzymes. While there is no minimum percentage of increase required for a result to be considered positive, a twofold increase in mutant colonies in a treated plate is usually considered to be a positive (mutagenic) response.
[…]

| Compound | outcome |
| --- | --- |
| Nc1ccc([N+](=O)[O-])cc1[N+](=O)[O-] | active; positive |
| NC(N)=NC(=O)c1nc(Cl)c(N)nc1N | active; positive |
| ON=C1CCCCC1 | active; positive |
| O=P(O)(O)Oc1c[nH]c2ccccc12 | active; positive |
| O=C(OCC1CO1)c1cccc(C(=O)OCC2CO2)c1 (centres undefined) | active; positive |
| COP(=O)(OC)O/C(=C\Cl)c1cc(Cl)c(Cl)cc1Cl | inactive; negative |
| CCN(CC)c1ccc2c(C)cc(=O)oc2c1 | inactive; negative |
| Cc1cc(-c2ccc(N=Nc3c(S(=O)(=O)O)cc4cc(S(=O)(=O)O)cc(O)c4c3O)c(C)c2)ccc1N=Nc1c(S(=O)(=O)O)cc2cc(S(=O)(=O)O)cc(O)c2c1O | inactive; negative |
| CCN(CC)c1cccc(O)c1 | active; positive |
| C1CCCC1 | inactive; negative |
| CCCCN(CCO)CCCC | inactive; negative |
| S=C(NC1CCCCC1)NC1CCCCC1 | inactive; negative |
| ClCc1ccccc1 | active; weakly positive |
| CCC(Cl)[N+](=O)[O-] (centres undefined) | active; positive |
| CC(=O)CC(C)(C)O | inactive; negative |
| Clc1ccc(C(c2ccccc2Cl)C(Cl)Cl)cc1 (centres undefined) | inactive; negative |
| Cc1c(N=C=O)cccc1N=C=O | active; positive |
| CN(C)C(=O)Oc1ccc[n+](C)c1 | inactive; negative |
| CC(O)COC(C)(C)C (centres undefined) | active; positive |
| CNc1ccccc1 | inactive; negative |
| CC(Cl)(Cl)Cl | inactive; negative |
| C1COC1 | active; positive |
| CCS(=O)CCSP(=O)(OC)OC (centres undefined) | active; positive |
| CC(C)Oc1ccc(Nc2ccccc2)cc1 | inactive; negative |
| O=C(O)c1ccc([N+](=O)[O-])cc1 | active; positive |

| Compound | outcome |
| --- | --- |
| Nc1ccc(N=Nc2ccccc2)c(N)n1 | active; positive |
| CCCCCCCCCCCCCCCCN | inactive; negative |
| O=C(O)CS | inactive; negative |
| c1ccc2c(c1)Oc1ccccc1S2 | inactive; negative |
| Oc1ccc(C(c2ccc(O)cc2)(C(F)(F)F)C(F)(F)F)cc1 | inactive; negative |
| CC(=O)c1ccccc1[N+](=O)[O-] | inactive; negative |
| CCCCOC(C)=O | inactive; negative |
| C1OCOCO1 | inactive; negative |
| OC[C@@]1(O)CO[C@](O)(CO)CO1 | active; positive |
| ClC(Cl)c1ccccc1 | active; positive |
| O[C@@H]([C@H](O)[C@H](O)CBr)[C@H](O)CBr | active; positive |
| NCc1ccc(CN)cc1 | inactive; negative |
| O=CNc1ccccc1 | inactive; negative |
| OCC=CCO | active; positive |
| Cc1ccc(N)cc1O | active; positive |
| NC(=O)NN=Cc1ccc([N+](=O)[O-])o1 | active; positive |
| COC(C)(C)CC(C)=O | inactive; negative |
| OC1CCCCC1 | inactive; negative |
| CCc1ccccc1 | inactive; negative |
| OC(c1ccc(Cl)cc1)(c1ccc(Cl)cc1)C(Cl)(Cl)Cl | inactive; negative |
| O=C1OC(=O)c2cc([N+](=O)[O-])ccc21 | active; positive |
| C=C(C)C1CC=C(C)C(O)C1 (centres undefined) | inactive; negative |
| Cc1cc(C)cc(N)c1 | active; weakly positive |
| CCCCC(CC)COC(=O)CCCCCCCCC(=O)OCC(CC)CCCC (centres undefined) | inactive; negative |

Source: PubChem BioAssay AID2202554 (NIEHS Division of Translational Toxicology (DTT))
